# Reference: US20140120232A1, “ACID TASTE/ACID SMELL-REDUCING AGENT” (T. HASEGAWA CO., LTD., priority 2011, published 2014)
# Experiment: Sensory evaluation of Vermont drink containing the agent
# Conditions: ten panels
# Procedure: Water was added to a mixture of 10 g of apple-cider vinegar (acetic acid: 4.8%), 3 g of honey, 7 g of fructose-glucose liquid sugar mixed with sugar, 0.02 g of citric acid, 0.002 g of trisodium citrate, and 0.1 g of a Vermont flavor (manufactured by T. Hasegawa Co., Ltd.) to give a total amount of 100 mL. To the resulting mixture was added (Z,Z)-4,7-tridecadienal as the acid taste and/or acid smell-reducing agent of the present invention in concentrations shown in the following Table 1 to give Vermont drinks containing the agent.
# Sensory evaluation of each drink was carried out by ten panels. […] The piercing aroma characteristic to aldehydes is a characteristic aroma common to every aldehyde and refers to an irritant off-smell giving an image of deteriorated oils and fats, soap, metals, Houttuynia cordata, etc. The judgment of smell was performed by comparing the effects at different concentrations of the acid taste and/or acid smell-reducing agent, and a concentration giving the highest acid taste/acid smell quality was selected. […]
smiles,measurement,setting,value
"CCCCC/C=C/C/C=C/CCC=O [(E,E)-4,7-tridecadienal]","A: number of panels, acid taste/acid smell extreme and cause irritation",0.005 ppt,10
same,"B: number of panels, acid taste/acid smell slightly strong and slightly cause irritation",0.005 ppt,0
same,"C: number of panels, acid taste/acid smell slightly unpleasant",0.005 ppt,0
same,Flavor judgment: number of panels who judged acid taste/acid smell quality the highest,0.005 ppt,0
same,"N: number of panels, irritation of acid reduced to give a mild acid taste",0.005 ppt,0
same,"X: number of panels, acid taste reduced but piercing odor characteristic to aldehydes unpleasant",0.005 ppt,0
same,"A: number of panels, acid taste/acid smell extreme and cause irritation",0.02 ppt,10
same,"B: number of panels, acid taste/acid smell slightly strong and slightly cause irritation",0.02 ppt,0
same,"C: number of panels, acid taste/acid smell slightly unpleasant",0.02 ppt,0
same,Flavor judgment: number of panels who judged acid taste/acid smell quality the highest,0.02 ppt,0
same,"N: number of panels, irritation of acid reduced to give a mild acid taste",0.02 ppt,0
same,"X: number of panels, acid taste reduced but piercing odor characteristic to aldehydes unpleasant",0.02 ppt,0
same,"A: number of panels, acid taste/acid smell extreme and cause irritation",0.1 ppt,10
same,"B: number of panels, acid taste/acid smell slightly strong and slightly cause irritation",0.1 ppt,0
same,"C: number of panels, acid taste/acid smell slightly unpleasant",0.1 ppt,0
same,Flavor judgment: number of panels who judged acid taste/acid smell quality the highest,0.1 ppt,0
same,"N: number of panels, irritation of acid reduced to give a mild acid taste",0.1 ppt,0
same,"X: number of panels, acid taste reduced but piercing odor characteristic to aldehydes unpleasant",0.1 ppt,0
same,"A: number of panels, acid taste/acid smell extreme and cause irritation",0.2 ppt,8
same,"B: number of panels, acid taste/acid smell slightly strong and slightly cause irritation",0.2 ppt,2
same,"C: number of panels, acid taste/acid smell slightly unpleasant",0.2 ppt,0
same,Flavor judgment: number of panels who judged acid taste/acid smell quality the highest,0.2 ppt,0
same,"N: number of panels, irritation of acid reduced to give a mild acid taste",0.2 ppt,0
same,"X: number of panels, acid taste reduced but piercing odor characteristic to aldehydes unpleasant",0.2 ppt,0
same,"A: number of panels, acid taste/acid smell extreme and cause irritation",0.5 ppt,6
same,"B: number of panels, acid taste/acid smell slightly strong and slightly cause irritation",0.5 ppt,2
same,"C: number of panels, acid taste/acid smell slightly unpleasant",0.5 ppt,2
same,Flavor judgment: number of panels who judged acid taste/acid smell quality the highest,0.5 ppt,0
same,"N: number of panels, irritation of acid reduced to give a mild acid taste",0.5 ppt,0
same,"X: number of panels, acid taste reduced but piercing odor characteristic to aldehydes unpleasant",0.5 ppt,0
same,"A: number of panels, acid taste/acid smell extreme and cause irritation",1 ppb,0
same,"B: number of panels, acid taste/acid smell slightly strong and slightly cause irritation",1 ppb,0
same,"C: number of panels, acid taste/acid smell slightly unpleasant",1 ppb,3
same,Flavor judgment: number of panels who judged acid taste/acid smell quality the highest,1 ppb,0
same,"N: number of panels, irritation of acid reduced to give a mild acid taste",1 ppb,4
same,"X: number of panels, acid taste reduced but piercing odor characteristic to aldehydes unpleasant",1 ppb,3
same,"A: number of panels, acid taste/acid smell extreme and cause irritation",1 ppt,0
same,"B: number of panels, acid taste/acid smell slightly strong and slightly cause irritation",1 ppt,4
same,"C: number of panels, acid taste/acid smell slightly unpleasant",1 ppt,5
same,Flavor judgment: number of panels who judged acid taste/acid smell quality the highest,1 ppt,0
same,"N: number of panels, irritation of acid reduced to give a mild acid taste",1 ppt,1
same,"X: number of panels, acid taste reduced but piercing odor characteristic to aldehydes unpleasant",1 ppt,0
same,"A: number of panels, acid taste/acid smell extreme and cause irritation",5 ppt,0
same,"B: number of panels, acid taste/acid smell slightly strong and slightly cause irritation",5 ppt,1
same,"C: number of panels, acid taste/acid smell slightly unpleasant",5 ppt,3
same,Flavor judgment: number of panels who judged acid taste/acid smell quality the highest,5 ppt,4
same,"N: number of panels, irritation of acid reduced to give a mild acid taste",5 ppt,6
same,"X: number of panels, acid taste reduced but piercing odor characteristic to aldehydes unpleasant",5 ppt,0
same,"A: number of panels, acid taste/acid smell extreme and cause irritation",10 ppb,0
same,"B: number of panels, acid taste/acid smell slightly strong and slightly cause irritation",10 ppb,0
same,"C: number of panels, acid taste/acid smell slightly unpleasant",10 ppb,1
same,Flavor judgment: number of panels who judged acid taste/acid smell quality the highest,10 ppb,0
same,"N: number of panels, irritation of acid reduced to give a mild acid taste",10 ppb,3
same,"X: number of panels, acid taste reduced but piercing odor characteristic to aldehydes unpleasant",10 ppb,6
same,"A: number of panels, acid taste/acid smell extreme and cause irritation",20 ppt,0
same,"B: number of panels, acid taste/acid smell slightly strong and slightly cause irritation",20 ppt,0
same,"C: number of panels, acid taste/acid smell slightly unpleasant",20 ppt,3
same,Flavor judgment: number of panels who judged acid taste/acid smell quality the highest,20 ppt,3
same,"N: number of panels, irritation of acid reduced to give a mild acid taste",20 ppt,7
same,"X: number of panels, acid taste reduced but piercing odor characteristic to aldehydes unpleasant",20 ppt,0
same,"A: number of panels, acid taste/acid smell extreme and cause irritation",50 ppb,0
same,"B: number of panels, acid taste/acid smell slightly strong and slightly cause irritation",50 ppb,0
same,"C: number of panels, acid taste/acid smell slightly unpleasant",50 ppb,0
same,Flavor judgment: number of panels who judged acid taste/acid smell quality the highest,50 ppb,0
same,"N: number of panels, irritation of acid reduced to give a mild acid taste",50 ppb,3
same,"X: number of panels, acid taste reduced but piercing odor characteristic to aldehydes unpleasant",50 ppb,7
same,"A: number of panels, acid taste/acid smell extreme and cause irritation",100 ppt,0
same,"B: number of panels, acid taste/acid smell slightly strong and slightly cause irritation",100 ppt,0
same,"C: number of panels, acid taste/acid smell slightly unpleasant",100 ppt,3
same,Flavor judgment: number of panels who judged acid taste/acid smell quality the highest,100 ppt,3
same,"N: number of panels, irritation of acid reduced to give a mild acid taste",100 ppt,7
same,"X: number of panels, acid taste reduced but piercing odor characteristic to aldehydes unpleasant",100 ppt,0
same,"A: number of panels, acid taste/acid smell extreme and cause irritation",500 ppt,0
same,"B: number of panels, acid taste/acid smell slightly strong and slightly cause irritation",500 ppt,2
same,"C: number of panels, acid taste/acid smell slightly unpleasant",500 ppt,3
same,Flavor judgment: number of panels who judged acid taste/acid smell quality the highest,500 ppt,0
same,"N: number of panels, irritation of acid reduced to give a mild acid taste",500 ppt,3
same,"X: number of panels, acid taste reduced but piercing odor characteristic to aldehydes unpleasant",500 ppt,2
